Data from ChEMBL document CHEMBL1131488, “Dihydropyrancarboxamides related to zanamivir: a new series of inhibitors of influenza virus sialidases. 1. Discovery, synthesis, biological activity, and structure-activity relationships of 4-guanidino- and 4-amino-4H-pyran-6-carboxamides” (J Med Chem, 1998).

Legend:
[1] = molecular target: Neuraminidase (Influenza A virus (A/Puerto Rico/8/1934(H1N1)), UniProt P03468); assay: Inhibition of sialidase (Flu A, 5 nM)
[2] = molecular target: Neuraminidase (Influenza A virus (A/Puerto Rico/8/1934(H1N1)), UniProt P03468); assay: Inhibition of influenza A virus sialidase activity
[3] = system: Mus musculus; assay: Compound was tested for in vivo efficacy in mouse model of influenza A virus A/Singapore/1/57 at dose of 50 mg/kg.; type: functional
[4] = molecular target: T1, Neuraminidase (Influenza B virus (strain B/Lee/1940), UniProt P03474); assay: Inhibition of influenza B virus sialidase activity
[5] = molecular target: Neuraminidase (Influenza A virus (A/Puerto Rico/8/1934(H1N1)), UniProt P03468)
[6] = molecular target: Neuraminidase (Influenza A virus (A/Puerto Rico/8/1934(H1N1)), UniProt P03468); remark: listed apart in the source
[7] = molecular target: Neuraminidase (Influenza A virus (A/Puerto Rico/8/1934(H1N1)), UniProt P03468); remark: listed apart in the source
[8] = molecular target: Neuraminidase (Influenza A virus (A/Puerto Rico/8/1934(H1N1)), UniProt P03468); remark: listed apart in the source
[9] = molecular target: T1, Neuraminidase; assay: Inhibitory activity against sialidase of influenza B virus by plaque reduction assay
[10] = molecular target: T1, Neuraminidase; assay: Inhibitory activity against sialidase (influenza B virus by plaque reduction assay)
[11] = system: Mus musculus; assay: Compound was tested for in vivo efficacy in mouse model of influenza A virus A/Singapore/1/57 at dose of 10 mg/kg.; type: functional
[12] = system: Mus musculus; assay: Compound was tested for concentration of intranasally administered drug (10 mg/kg) which reduces virus titer by 90%; type: functional; conditions: inhaled or nasal
[13] = Clp, plasma clearance at a dose of 50 mg/kg; type: ADME, organism-based; design: dose 50 mg/kg; conditions: read-out: Clp
[14] = t1/2, plasma elimination half life, the time taken for the plasma concentrations to fall by one half, once distribution is complete at a dose of 50 mg/kg; type: ADME, organism-based; design: dose 50 mg/kg
[15] = system: Mus musculus; assay: Compound was tested for in vivo efficacy in mouse model of influenza A virus A/Singapore/1/57 at dose of 1 mg/kg.; type: functional
[16] = Vss, volume of distribution at steady state at a dose of 50 mg/kg; type: ADME, organism-based; design: dose 50 mg/kg; conditions: in vivo, read-out: Vss
[17] = molecular target: T1, Neuraminidase
[18] = system: Mus musculus; assay: Compound was tested for in vivo efficacy in mouse model of influenza A virus A/Singapore/1/57 at dose of 0.5 mg/kg (in); type: functional
[19] = system: Mus musculus; assay: Compound was tested for concentration of intranasally administered drug (0.5 mg/kg) which reduces virus titer by 90%; type: functional; conditions: inhaled or nasal
[20] = system: Mus musculus; assay: Compound was tested for in vivo efficacy in mouse model of influenza A virus A/Singapore/1/57 at dose of 50 mg/kg (ip); type: functional
[21] = t1/2, plasma elimination half life, the time taken for the plasma concentrations to fall by one half, once distribution is complete at a dose of 10 mg/kg; type: ADME, organism-based; design: dose 10 mg/kg
[22] = system: Mus musculus; assay: Compound was tested for in vivo efficacy in mouse model of influenza A virus A/Singapore/1/57 at dose of 1 mg/kg. (in); type: functional
[23] = system: Mus musculus; assay: Compound was tested for in vivo efficacy in mouse model of influenza A virus A/Singapore/1/57 at dose of 50 mg/kg.(ip); type: functional
[24] = system: Mus musculus; assay: Compound was tested for in vivo efficacy in mouse model of influenza A virus A/Singapore/1/57 at dose of 10 mg/kg.(ip); type: functional
[25] = Clp, plasma clearance at a dose of 10 mg/kg; type: ADME, organism-based; design: dose 10 mg/kg; conditions: read-out: Clp
[26] = Vss, volume of distribution at steady state at a dose of 10 mg/kg; type: ADME, organism-based; design: dose 10 mg/kg; conditions: in vivo, read-out: Vss

T1 sequence (P03474 whole entry): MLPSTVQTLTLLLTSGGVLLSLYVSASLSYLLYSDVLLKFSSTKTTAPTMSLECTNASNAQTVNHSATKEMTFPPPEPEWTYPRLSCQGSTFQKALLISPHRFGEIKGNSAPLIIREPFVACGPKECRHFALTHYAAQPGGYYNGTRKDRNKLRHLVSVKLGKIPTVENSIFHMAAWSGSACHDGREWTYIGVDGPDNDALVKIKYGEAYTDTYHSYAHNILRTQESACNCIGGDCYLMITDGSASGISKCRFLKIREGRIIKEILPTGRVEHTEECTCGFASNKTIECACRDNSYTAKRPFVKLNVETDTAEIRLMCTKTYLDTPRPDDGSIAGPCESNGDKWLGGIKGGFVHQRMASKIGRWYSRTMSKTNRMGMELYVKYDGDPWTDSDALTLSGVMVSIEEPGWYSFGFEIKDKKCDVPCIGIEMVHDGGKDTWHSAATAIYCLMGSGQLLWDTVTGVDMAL
Sequence of Neuraminidase (Influenza A virus (A/Puerto Rico/8/1934(H1N1)), UniProt P03468) (P03468 whole entry): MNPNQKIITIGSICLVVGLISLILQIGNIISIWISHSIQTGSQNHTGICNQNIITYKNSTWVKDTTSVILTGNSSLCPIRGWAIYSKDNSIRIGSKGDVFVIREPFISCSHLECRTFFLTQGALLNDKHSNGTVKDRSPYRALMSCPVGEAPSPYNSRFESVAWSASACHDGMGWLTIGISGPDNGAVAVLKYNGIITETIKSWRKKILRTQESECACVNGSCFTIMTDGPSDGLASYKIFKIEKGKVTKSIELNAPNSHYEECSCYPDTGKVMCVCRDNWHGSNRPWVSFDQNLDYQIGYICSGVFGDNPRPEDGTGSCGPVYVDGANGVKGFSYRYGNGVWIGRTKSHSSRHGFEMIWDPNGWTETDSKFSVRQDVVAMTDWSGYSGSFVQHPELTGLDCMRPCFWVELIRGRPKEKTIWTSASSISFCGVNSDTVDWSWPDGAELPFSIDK

`CC(=O)N[C@@H]1[C@@H](N)C=C(C(=O)O)O[C@H]1C(=O)NCCN` gave an IC50 [1] greater than 390 µM.

With `CCCN(CCc1ccc(-c2ccccc2)cc1)C(=O)[C@@H]1OC(C(=O)O)=C[C@H](N)[C@H]1NC(C)=O` the IC50 [2] was 2 nM.

In the case of `CCN(CC)C(=O)[C@@H]1OC(C(=O)O)=C[C@H](NC(=N)N)[C@H]1NC(C)=O`, the “Reduction in virus titer” value [3] is reported as 89%.

Work on `CCN(CC)C(=O)[C@@H]1OC(C(=O)O)=C[C@H](N)[C@H]1NC(C)=O` yielded an IC50 [4] of 0.36 µM, an IC50 [5] of 40 nM and an IC50 [6] of 5 nM. It also gave an IC50 [7] of 85 nM and an IC50 [8] of 20 nM.

For `CC(=O)N[C@@H]1[C@@H](N)C=C(C(=O)O)O[C@H]1C(=O)NCCc1ccccc1`, the IC50 [9] was greater than 100 µg/mL.

For `CCCN(CCc1ccc(Cl)cc1Cl)C(=O)[C@@H]1OC(C(=O)O)=C[C@H](N)[C@H]1NC(C)=O`, the IC50 [2] was 6 nM and the IC50 [4] was 16 µM.

In the case of `CC(=O)N[C@@H]1[C@@H](N)C=C(C(=O)O)O[C@H]1C(=O)N1CCCC1`, the IC50 [2] is reported as 2900 nM and the IC50 [10] is reported as greater than 100 µg/mL.

With `CCCN(C)C(=O)[C@@H]1OC(C(=O)O)=C[C@H](NC(=N)N)[C@H]1NC(C)=O` the “Reduction in virus titer” value [11] was 99.9%, the ED90 [12] was less than 1 mg/kg and the IC50 [5] was 5.6 nM. The IC50 [6] was 3 nM, the clearance [13] was 17.8 mL/min/kg and the IC50 [7] was 26 nM. For the same molecule, the “Reduction in virus titer” value [3] was 74.5%, the IC50 [8] was 28 nM and the half-life [14] was 12.6 min. The “Reduction in virus titer” value [15] was 95% and the Vd [16] was 0.3 L/kg.

In the case of `CC(=O)N[C@@H]1[C@@H](N)C=C(C(=O)O)O[C@H]1C(=O)N1CCCC1C` (stereo partly drawn), the IC50 [2] is reported as 310 nM and the IC50 [4] is reported as 210 µM.

In the case of `CC(=O)N[C@@H]1[C@@H](N)C=C(C(=O)O)O[C@H]1C(=O)NC1CCCCC1`, the IC50 [1] is reported as 19 µM and the IC50 [17] is reported as greater than 450 µM.

Work on `CC(=O)N[C@@H]1[C@@H](N)C=C(C(=O)O)O[C@H]1C(=O)NCC(=O)O` yielded an IC50 [1] greater than 480 µM.

`CCCN(CCc1cccc(OC)c1)C(=O)[C@@H]1OC(C(=O)O)=C[C@H](N)[C@H]1NC(C)=O` showed an IC50 [2] of 5 nM and an IC50 [4] of 3.2 µM.

With `CCCN(CCc1ccc(OC)cc1)C(=O)[C@@H]1OC(C(=O)O)=C[C@H](N)[C@H]1NC(C)=O` the IC50 [2] was 8 nM and the IC50 [4] was 3.3 µM.

With `CC(=O)N[C@H]1[C@H]([C@H](O)[C@H](O)CO)OC(C(=O)O)=C[C@@H]1NC(=N)N` [ZANAMIVIR] the “Reduction in virus titer” value [18] was 99.5%, the ED90 [19] was 0.03 mg/kg and the clearance [13] was 24.9 mL/min/kg. For the same molecule, the “Reduction in virus titer” value [20] was 96.2%, the half-life [14] was 9.6 min and the Vd [16] was 0.3 L/kg.

`CC(=O)N[C@@H]1[C@@H](N)C=C(C(=O)O)O[C@H]1C(=O)N(CCc1ccccc1)CCN(C)C` showed an IC50 [2] greater than 300000 nM and an IC50 [4] greater than 300 µM.

With `CC(=O)N[C@@H]1[C@@H](NC(=N)N)C=C(C(=O)O)O[C@H]1C(=O)NCCN` the IC50 [1] was 20 µM.

For `CCCCCCCCCN(CCC)C(=O)[C@@H]1OC(C(=O)O)=C[C@H](N=C(N)N)[C@H]1NC(C)=O`, the half-life [21] was 55.2 min, the IC50 [2] was 7 nM and the “Reduction in virus titer” value [22] was 72%. For the same molecule, the IC50 [4] was greater than 3 µM, the “Reduction in virus titer” value [23] was 50% and the “Reduction in virus titer” value [24] was greater than 99.99%. The clearance [25] was 21.8 mL/min/kg and the Vd [26] was 1.2 L/kg.

`CCCN(CCc1ccccc1OC)C(=O)[C@@H]1OC(C(=O)O)=C[C@H](N)[C@H]1NC(C)=O` showed an IC50 [2] of 9 nM and an IC50 [4] of 12 µM.

Work on `CC(=O)N[C@@H]1[C@@H](N)C=C(C(=O)O)O[C@H]1C(=O)N(CCCO)CCc1ccccc1` yielded an IC50 [2] of 3000 nM and an IC50 [4] greater than 360 µM.

With `CC(=O)N[C@@H]1[C@@H](N)C=C(C(=O)O)O[C@H]1C(=O)N(CCc1ccccc1)C1CC1` the IC50 [2] was 46 nM and the IC50 [4] was 36 µM.

With `CCCN(CCc1ccc(C(C)C)cc1)C(=O)[C@@H]1OC(C(=O)O)=C[C@H](N)[C@H]1NC(C)=O` the IC50 [2] was 12 nM and the IC50 [4] was 6.2 µM.
